Test results published in patent EP4603105A1, “PHARMACEUTICAL COMPOSITION CONTAINING CYCLIC COMPOUND HAVING SELECTIVE KRAS INHIBITORY EFFECT AGAINST HRAS AND NRAS” (CHUGAI SEIYAKU KABUSHIKI KAISHA, priority 2022, dated 2024).
Where two headings read alike, the source gives them in different places. Where a SMILES comes first, the peptide text is derived from it. Bridges are numbered along the chain shown (N, C = ends). [ ]: non-standard residue; d: D form. The star is where a group is joined. hPhe(3-Cl-4-CF3) = N[C@@H](CCc1ccc(C(F)(F)F)c(Cl)c1)C(=O)O; NPrPhe(4-CF3) = CCCN[C@@H](Cc1ccc(C(F)(F)F)cc1)C(=O)O; Abu(4,4,4-F3) = N[C@@H](CC(F)(F)F)C(=O)O; NMeGly(cPent) = CN[C@H](C(=O)O)C1CCCC1; Pro(4,4-Me2) = CC1(C)CN[C@H](C(=O)O)C1; NMeD = CN[C@@H](CC(=O)O)C(=O)O; NMeL = CN[C@@H](CC(C)C)C(=O)O; Morpholide = C1CN(*)CCO1; NMeA = CN[C@@H](C)C(=O)O; Ac5c = NC1(C(=O)O)CCCC1; Aze = O=C(O)[C@@H]1CCN1; NEtG = CCNCC(=O)O; Sar = CNCC(=O)O

Experiments:
[1] = system: human lung cancer strain NCI-H441; type: cell-based
Method in brief: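 Proliferation was scored by […] measured after the reagent was added to cultures kept at 37°C in 5% carbon dioxide.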

[2] = target: HRAS wild-type protein (Homo sapiens, UniProt P01112); test: Binding to HRAS by surface plasmon resonance (SPR), KD and KD ratio to KRAS
Method in brief: (§1)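 SPR, 30°C: Avi-biotin RAS·GDP captured via Biotin CAPture (~100–300 RU); running buffer HBS pH 7.4, 1 mM DTT, 10 mM MgCl2, 0.01% Tween 20, 10 µM GDP, 4% DMSO. Single-cycle kinetics, 100 µL/min, 75 s injections; 1:1 model → KD.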

[3] = target: GDP-bound NRAS wild-type protein (Homo sapiens, UniProt P01111); test: Binding to NRAS by surface plasmon resonance (SPR), KD and KD ratio to KRAS
Method in brief: as §1

[4] = ratio of KD for HRAS wild-type protein to KD for KRAS
[5] = ratio of KD for GDP-bound NRAS wild-type protein to KD for KRAS
[6] = ratio of the KD value with respect to HRAS wild-type protein to the KD value with respect to KRAS
[7] = ratio of the KD value with respect to GDP-bound NRAS wild-type protein to the KD value with respect to KRAS
[8] = ratio of KD with respect to HRAS wild-type protein to KD with respect to KRAS
[9] = ratio of KD with respect to GDP-bound NRAS wild-type protein to KD with respect to KRAS
[10] = ratio of KD value for HRAS wild-type protein to KD value for KRAS (SPR)
[11] = ratio of KD value for GDP-bound NRAS wild-type protein to KD value for KRAS (SPR)

HRAS wild-type protein, sequence (P01112 whole entry): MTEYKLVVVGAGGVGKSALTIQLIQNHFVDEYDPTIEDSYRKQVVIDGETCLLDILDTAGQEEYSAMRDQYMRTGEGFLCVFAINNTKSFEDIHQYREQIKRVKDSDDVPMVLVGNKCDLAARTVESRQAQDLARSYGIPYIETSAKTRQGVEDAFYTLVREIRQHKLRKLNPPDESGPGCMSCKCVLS
GDP-bound NRAS wild-type protein, sequence (P01111 whole entry): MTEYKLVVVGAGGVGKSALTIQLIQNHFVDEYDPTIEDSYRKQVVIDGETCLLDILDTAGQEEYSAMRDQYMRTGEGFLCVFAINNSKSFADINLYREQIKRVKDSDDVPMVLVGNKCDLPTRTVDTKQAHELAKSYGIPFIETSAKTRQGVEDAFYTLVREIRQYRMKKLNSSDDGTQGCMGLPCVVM

Compound | IC50 [1] | HRAS /KRAS [2, 4] | NRAS /KRAS [3, 5] | also measured
CC[C@H](C)[C@@H]1NC(=O)[C@@H]2CCC/C=C/c3ccc(cc3)C[C@@H](C(=O)N(C)CC(=O)N[C@@H](CCc3ccc(Cl)c(Cl)c3)C(=O)N3C[C@H](OC4CCCC4)C[C@H]3C(=O)NC3(CC(C)(C)C3)C(=O)N(C)[C@@H](C3CCCC3)C(=O)N(C)[C@H](C(=O)N3CCCC3)CC(=O)N2C)N2CC/C=C\C[C@@H](C2=O)N(C)C(=O)CN(C)C1=O [PP3054] | 0.0384 µM | A (a compound having 10 or more and less than 20 is denoted as A) | A (a compound having 10 or more and less than 20 is denoted as A) | 
CC[C@H](C)[C@@H]1NC(=O)[C@H](COC)N(C)C(=O)C[C@@H](C(=O)N2CCOCC2)N(C)C(=O)[C@H](C2CCCC2)N(C)C(=O)C2(CCCC2)NC(=O)[C@@H]2C[C@H](O)CN2C(=O)[C@H](CCc2cc(F)c(C(F)(F)F)c(F)c2)NC(=O)CN(C)C(=O)[C@H](Cc2ccc(C(F)(F)F)cc2)N2CCCCC[C@@H](C2=O)N(C)C(=O)CN(C)C1=O [PP0847] | 0.136 µM | B (a compound having 3 or more and less than 10 is denoted as B) | B (a compound having 3 or more and less than 10 is denoted as B) | 
C#CC[C@H]1C(=O)N[C@@H]([C@@H](C)CC)C(=O)N(C)CC(=O)N(C)[C@H]2C/C=C\CCN(C2=O)[C@@H](Cc2ccc(C(F)(F)F)cc2)C(=O)N(C)CC(=O)N[C@@H](CCc2ccc(C(F)(F)F)c(OC)c2)C(=O)N2CC[C@H]2C(=O)NC2(CCC2)C(=O)N(C)[C@@H](C2CCCC2)C(=O)N(C)[C@H](C(=O)N(C)C)CC(=O)N1C [PP2911] | 0.0648 µM | B (a compound having 3 or more and less than 10 is denoted as B) | A (a compound having 10 or more and less than 20 is denoted as A) | 
CCC[C@H]1C(=O)N[C@@H]([C@@H](C)CC)C(=O)N(C)CC(=O)N(C)[C@H]2C/C=C\CCN(C2=O)[C@@H](CC2CCC(F)(F)CC2)C(=O)N(C)CC(=O)N[C@@H](CCc2ccc(C(F)(F)F)c(OC)c2)C(=O)N2C[C@H](OCC)C[C@H]2C(=O)N(C)C2(CCC2)C(=O)N(C)[C@@H](C(CC)CC)C(=O)N(C)[C@H](C(=O)N(C)C)CC(=O)N1C [PP2345] | 0.0772 µM |  |  | HRAS /KRAS [2, 6]: A (a compound having 10 or more and less than 20 is denoted as A); NRAS /KRAS [3, 7]: A (a compound having 10 or more and less than 20 is denoted as A)
CCCN(C)C(=O)[C@@H]1CC(=O)N(C)[C@@H](CC2CC2)C(=O)N[C@@H]([C@@H](C)CC)C(=O)N(C)CC(=O)N(C)[C@H]2C/C=C\CCN(C2=O)[C@@H](Cc2ccc(C(F)(F)F)cc2)C(=O)N(C)CC(=O)N[C@@H](CCc2cc(F)c(C(F)(F)F)c(F)c2)C(=O)N2C[C@H](OCC)C[C@H]2C(=O)NC2(CCC2)C(=O)N(C)[C@@H](C2CCCC2)C(=O)N1C [PP1388] | 0.0088 µM |  |  | HRAS /KRAS [2, 8]: B (a compound having 3 or more and less than 10 is denoted as B); NRAS /KRAS [3, 9]: A (a compound having 10 or more and less than 20 is denoted as A)
C#CC[C@H]1C(=O)N[C@@H]([C@@H](C)CC)C(=O)N(C)CC(=O)N(C)[C@H]2C/C=C\CCN(C2=O)[C@@H](Cc2ccc(C(F)(F)F)cc2)C(=O)N(C)CC(=O)N[C@@H](CCc2ccc(C(F)(F)F)c(OC)c2)C(=O)N2CCOC[C@H]2C(=O)NC2(CC(C)(C)C2)C(=O)N(C)[C@@H](C2CCCC2)C(=O)N(C)[C@H](C(=O)N(C)C)CC(=O)N1C [PP2905] | 0.0352 µM | A (a compound having 10 or more and less than 20 is denoted as A) | AA (a compound having 20 or more is denoted as AA) | 
CCCN1C(=O)CN(C)C(=O)CN(CC)C(=O)[C@H](CC(F)(F)F)NC(=O)[C@H](CC(C)C)N(C)C(=O)C[C@@H](C(=O)N2CCOCC2)N(C)C(=O)[C@H](C2CCCC2)N(C)C(=O)C2(CCCC2)NC(=O)[C@@H]2CCCN2C(=O)[C@H](CCc2ccc(C(F)(F)F)c(Cl)c2)NC(=O)CN(C)C(=O)[C@@H]1Cc1ccc(C(F)(F)F)cc1 [PP0291] ([NMeL][Abu(4,4,4-F3)][NEtG][Sar][NPrPhe(4-CF3)][Sar][hPhe(3-Cl-4-CF3)]P[Ac5c][NMeGly(cPent)][NMeD]-Morpholide; lactam N-11) | 0.031 µM | B (a compound having 3 or more and less than 10 is denoted as B) | B (a compound having 3 or more and less than 10 is denoted as B) | 
CCC[C@H]1C(=O)N[C@@H]([C@@H](C)CC)C(=O)N(C2CC2)CC(=O)N(C)[C@H]2C/C=C\CCN(C2=O)[C@@H](Cc2ccc(C)cc2)C(=O)N(C)CC(=O)N[C@@H](CCc2ccc(C3CC3)c(F)c2)C(=O)N2C[C@H](OCC)C[C@H]2C(=O)NC2(CC(C)(C)C2)C(=O)N(C)[C@@H](C2CCCC2)C(=O)N(C)[C@H](C(=O)N(C)C)CC(=O)N1C [PP2884] |  | A (a compound having 10 or more and less than 20 is denoted as A) | A (a compound having 10 or more and less than 20 is denoted as A) | IC50 ([1]; NCI-H441 cells, 4 days, CellTiter-Glo, read-out: NCl-H441 IC50): 0.0359 µM
C#CC[C@H]1C(=O)N[C@@H]([C@@H](C)CC)C(=O)N(C)CC(=O)N(C)[C@H]2C/C=C\CCN(C2=O)[C@@H](Cc2ccc(C(F)(F)F)cc2)C(=O)N(C)CC(=O)N[C@@H](CCc2ccc(C(F)(F)F)c(OC)c2)C(=O)N2CC[C@H]2C(=O)NC2(CC(C)(C)C2)C(=O)N(C)[C@@H](C2CCCC2)C(=O)N(C)[C@H](C(=O)N(C)C)CC(=O)N1C [PP2909] | 0.0613 µM | B (a compound having 3 or more and less than 10 is denoted as B) | B (a compound having 3 or more and less than 10 is denoted as B) | 
CCO[C@@H]1C[C@H]2C(=O)NC3(CC(C)(C)C3)C(=O)N(C)[C@@H](C3CCCC3)C(=O)N(C)[C@H](C(=O)N(C)CC)CC(=O)N(C)[C@@H](CC(F)F)C(=O)N[C@@H]([C@@H](C)CC)C(=O)N(C)CC(=O)N(C)[C@H]3C/C=C\CCN(C3=O)[C@@H](Cc3ccc(C(F)(F)F)cc3)C(=O)N(C)CC(=O)N[C@@H](CCc3cc(F)c(C(F)(F)F)c(F)c3)C(=O)N2C1 [PP1643] | 0.0016 µM |  |  | HRAS /KRAS [2, 10]: A (a compound having 10 or more and less than 20 is denoted as A); NRAS /KRAS [3, 11]: A (a compound having 10 or more and less than 20 is denoted as A)
CCO[C@@H]1C[C@H]2C(=O)N(C)C3(CCCC3)C(=O)N(C)[C@@H](C3CCCC3)C(=O)N(C)[C@H](C(=O)N(C)C)CC(=O)N(C)[C@@H](CC)C(=O)N[C@@H]([C@@H](C)CC)C(=O)N(C)CC(=O)N(C)[C@H]3C/C=C\CCN(C3=O)[C@@H](Cc3ccc(C)cc3)C(=O)N(C)CC(=O)N[C@@H](CCc3cc(F)c(C(F)(F)F)c(F)c3)C(=O)N2C1 [PP1806] | 0.004 µM |  |  | HRAS /KRAS [2, 10]: B (a compound having 3 or more and less than 10 is denoted as B); NRAS /KRAS [3, 11]: A (a compound having 10 or more and less than 20 is denoted as A)
CCCN1C(=O)[C@@H]2CCN2C(=O)[C@H](C)N(C)C(=O)[C@H]([C@@H](C)CC)NC(=O)[C@H](CC(C)C)N(C)C(=O)C[C@@H](C(=O)N2CCOCC2)N(C)C(=O)[C@H](C2CCCC2)N(C)C(=O)C2(CCCC2)NC(=O)[C@@H]2CC(C)(C)CN2C(=O)[C@H](CCc2ccc(C(F)(F)F)c(Cl)c2)NC(=O)CN(C)C(=O)[C@@H]1Cc1ccc(C(F)(F)F)cc1 [PP0454] ([NMeL]I[NMeA][Aze][NPrPhe(4-CF3)][Sar][hPhe(3-Cl-4-CF3)][Pro(4,4-Me2)][Ac5c][NMeGly(cPent)][NMeD]-Morpholide; lactam N-11) | 0.0029 µM |  |  | HRAS /KRAS [2, 6]: C (A compound having a KD ratio of 0.1 or more and less than 3 is denoted as C); NRAS /KRAS [3, 7]: C (A compound having a KD ratio of 0.1 or more and less than 3 is denoted as C)
CCC[C@H]1C(=O)N[C@@H]([C@@H](C)CC)C(=O)N(C)CC(=O)N(C)[C@H]2C/C=C\CCN(C2=O)[C@@H](Cc2ccc(C(F)(F)F)cc2)C(=O)N(C)CC(=O)N[C@@H](CCc2cc(F)c(C(F)(F)F)c(F)c2)C(=O)N2C[C@H](OCC)C[C@H]2C(=O)NC2(CCC2)C(=O)N(C)[C@@H](C2CCCC2)C(=O)N(C)[C@H](C(=O)N(CC)CC)CC(=O)N1C [PP1310] | 0.0045 µM |  |  | HRAS /KRAS [2, 8]: A (a compound having 10 or more and less than 20 is denoted as A); NRAS /KRAS [3, 9]: AA (a compound having 20 or more is denoted as AA)
CCCN(C)C(=O)[C@@H]1CC(=O)N(C)[C@@H](CC2CC2)C(=O)N[C@@H]([C@@H](C)CC)C(=O)N(C)CC(=O)N(C)[C@H]2C/C=C\CCN(C2=O)[C@@H](Cc2ccc(C(F)(F)F)cc2)C(=O)N(C)CC(=O)N[C@@H](CCc2cc(F)c(C(F)(F)F)c(F)c2)C(=O)N2C[C@H](OCC)C[C@H]2C(=O)NC2(CC(F)(F)C2)C(=O)N(C)[C@@H](C2CCCC2)C(=O)N1C [PP1739] | 0.0055 µM |  |  | HRAS /KRAS [2, 10]: AA (a compound having 20 or more is denoted as AA); NRAS /KRAS [3, 11]: AA (a compound having 20 or more is denoted as AA)
